Experimental data: publication PMC2199305 (Environmental Health Perspectives, 2007)
Like-named read-outs stand apart in the source and are kept apart here.

Key:
[1] = molecular target: T1, GST-ERR-γ –LBD (human ERR-γ) (Homo sapiens, UniProt P62508); assay: Competitive receptor binding assay using [3H]BPA as tracer; conditions: for fold weaker binding affinity for ERR-γ than bisphenol E: ratio of IC50 vs bisphenol E
T1 construct: made in house; host or cells: Escherichia coli BL21α (vector pGEX6P-1)
T1 sequence (P62508 233-457 limits assumed): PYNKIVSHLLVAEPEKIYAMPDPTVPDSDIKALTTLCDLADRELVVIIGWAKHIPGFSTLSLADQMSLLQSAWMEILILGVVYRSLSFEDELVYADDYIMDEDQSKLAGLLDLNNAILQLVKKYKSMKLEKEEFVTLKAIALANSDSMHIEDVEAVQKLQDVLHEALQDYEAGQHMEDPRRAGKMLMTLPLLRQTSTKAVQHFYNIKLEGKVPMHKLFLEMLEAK
Excerpt: ERR-γ –LBD was amplified from a human kidney cDNA library (Clontech Laboratories, Mountain View, CA, USA) by polymerase chain reaction (PCR) using gene-specific primers and cloned into pGEX6P-1 (Amersham Biosciences, Piscataway, NJ, USA). Glutathione S-transferase (GST)–fused receptor protein expressed in Escherichia coli BL21α was purified on an affinity column of glutathione-sepharose 4B (GE Healthcare BioSciences Co., Piscataway, NJ, USA) to obtain GST-ERR-γ –LBD.
The reaction mixtures were incubated for 2 hr at 4°C and free radioligand was removed with 1% DCC by filtration as described above. Radioactivity was determined on a liquid scintillation counter (TopCount NXT; PerkinElmer Life Sciences Tokyo, Japan). […] Each assay was performed in duplicate and repeated at least three times.

GST-ER-α –LBD = molecular target: T2, GST-ER-α –LBD (Homo sapiens, UniProt P03372); assay: Competitive binding assay using [3H]E2; conditions: for IC50: read-out: Binding affinity for ER-α (IC50); for binding to ER-α (in words): [3H]E2 tracer; for ERR-γ receptor selectivity ER-α (IC50, nM)/ERR-γ (IC50, nM): ratio of IC50 values, ER-α over ERR-γ
T2 sequence (P03372 311-547 limits assumed): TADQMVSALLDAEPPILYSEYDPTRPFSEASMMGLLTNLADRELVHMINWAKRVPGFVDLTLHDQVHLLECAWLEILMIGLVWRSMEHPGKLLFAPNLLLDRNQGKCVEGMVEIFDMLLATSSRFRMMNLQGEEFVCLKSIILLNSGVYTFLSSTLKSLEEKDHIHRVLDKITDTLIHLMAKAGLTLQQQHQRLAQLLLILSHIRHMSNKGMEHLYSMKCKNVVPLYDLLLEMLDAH

human ERR-γ = molecular target: T3, human ERR-γ (Homo sapiens, UniProt P62508); conditions: HeLa cells; for inhibition of the inverse agonist (deactivation) activity of 4-OHT: added along with 1.0 μM 4-OHT; for effect on constitutive basal activity of ERR-γ: compound alone
T3 sequence (P62508 1-458): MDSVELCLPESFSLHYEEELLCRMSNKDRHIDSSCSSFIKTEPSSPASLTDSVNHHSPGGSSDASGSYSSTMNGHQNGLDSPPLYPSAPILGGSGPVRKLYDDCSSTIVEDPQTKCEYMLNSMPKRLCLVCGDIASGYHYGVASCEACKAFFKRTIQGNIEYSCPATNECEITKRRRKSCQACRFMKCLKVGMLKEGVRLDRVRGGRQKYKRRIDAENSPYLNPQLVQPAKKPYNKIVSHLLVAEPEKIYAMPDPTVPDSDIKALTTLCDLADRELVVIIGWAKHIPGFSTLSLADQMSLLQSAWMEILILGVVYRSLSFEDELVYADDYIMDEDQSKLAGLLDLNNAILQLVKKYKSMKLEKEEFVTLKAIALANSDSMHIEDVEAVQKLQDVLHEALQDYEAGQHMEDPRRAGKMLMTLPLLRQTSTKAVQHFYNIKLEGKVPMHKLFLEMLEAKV
Method: HeLa cells were maintained in Eagle’s MEM (EMEM; Nissui, Tokyo, Japan) in the presence of 10% (vol/vol) fetal bovine serum at 37°C. For luciferase assays, HeLa cells were seeded at 5 × 10^5 cells/6-cm dish for 24 hr and then transfected with 4 μg of reporter gene (pGL3/3 × ERRE) and 3 μg of ERR-γ expression plasmids (pcDNA3/ERR-γ ) by Lipofectamine Plus reagent (Invitrogen Japan, Tokyo, Japan) according to the manufacturer’s protocol. Approximately 24 hr after transfection, cells were harvested and plated into 96-well plates at 5 × 10^4 cells/well. The cells were then treated with varying doses of chemicals diluted with 1% bovine serum albumin/phosphate-buffered saline (BSA/PBS, vol/vol). […] After 24 hr, luciferase activity was measured with the appropriate reagent using a Luciferase Assay System (Promega, Madison, WI, USA) according to the manufacturer’s instructions. […] Cells treated with 1% BSA/PBS were used as a vehicle control. Each assay was performed in triplicate and repeated at least three times.

[2] = read-out: Binding affinity for ERR-γ (IC50)

SMILES	IC50 [1, 2] [nM]	binding to ER-α (in words) (GST-ER-α –LBD)	ERR-γ receptor selectivity ER-α (IC50, nM)/ERR-γ (IC50, nM) (GST-ER-α –LBD)	further results
CC(C)c1ccc(O)cc1 [4-Isopropylphenol, 4-isopropylphenol]	–	–	–	IC50 [1]: 71.1 ± 7.73 nM
CC(c1ccccc1)(c1ccc(O)cc1)c1ccc(O)cc1 [Bisphenol AP, 4,4′-(1-phenylethylidene)bisphenol]	123 ± 15.1	–	–	fold weaker binding affinity for ERR-γ than bisphenol E [1]: approximately 15 fold; IC50 (GST-ER-α –LBD): 361 ± 22.6 nM
Oc1ccc(Cc2ccc(O)cc2)cc1 [Bisphenol F, bis(4-hydroxyphenyl)methane]	131 ± 17.9	almost completely inactive	Exclusively ERR-γ	fold weaker binding affinity for ERR-γ than bisphenol E [1]: approximately 16 fold
CC(C)(c1ccccc1)c1ccc(O)cc1 [4-α-Cumylphenol, 2-(4-hydroxyphenyl)-2-phenylpropane]	–	–	–	IC50 (GST-ER-α –LBD): 4770 nM
CC(C)(C)c1ccc(O)cc1 [4-tert-Butylphenol, 4-tert-butylphenol]	–	almost completely inactive	–	–
CC(c1ccc(O)cc1)c1ccc(O)cc1 [Bisphenol E, 2,2-bis(4-hydroxyphenyl)ethane]	8.14 ± 0.83	almost completely inactive	Exclusively ERR-γ	inhibition of the inverse agonist (deactivation) activity of 4-OHT (human ERR-γ): inhibited the inverse agonist activity of 4-OHT; effect on constitutive basal activity of ERR-γ (human ERR-γ): retain a high constitutive basal activity
CCC(C)(C)c1ccc(O)cc1 [4-tert-Amylphenol, 4-tert-amylphenol]	33.2 ± 2.85	almost completely inactive	Exclusively ERR-γ	–
CC(C)(c1ccc(O)cc1)c1ccc(O)cc1 [BPA, 2,2-bis(4-hydroxyphenyl)propane]	–	–	–	IC50 [1]: 9.78 ± 0.87 nM; inhibition of the binding of [3H]BPA [1]: almost completely inhibits; inhibition of the inverse agonist (deactivation) activity of 4-OHT (human ERR-γ): antagonizes or inhibits the deactivation activity of 4-OHT in a dose-dependent manner; effect on constitutive basal activity of ERR-γ (human ERR-γ): retained a high constitutive basal activity
CC/C(=C(\c1ccc(O)cc1)c1ccc(OCCN(C)C)cc1)c1ccccc1 [4-OHT, 4-hydroxytamoxifen, reference compound]	–	–	–	deactivation of ERR-γ (inverse agonist activity) (human ERR-γ; 1.0 μM): approximately 0.4 fold
CCc1ccc(O)cc1 [4-Ethylphenol, 4-ethylphenol]	289 ± 45.9	–	–	–
Oc1ccc(C(c2ccc(O)cc2)(C(F)(F)F)C(F)(F)F)cc1 [Bisphenol AF, 2,2-bis(4-hydroxyphenyl)hexafluoropropane]	358 ± 30.5	–	–	inhibition of the inverse agonist (deactivation) activity of 4-OHT (human ERR-γ): inhibited the inverse agonist activity of 4-OHT; effect on constitutive basal activity of ERR-γ (human ERR-γ): retain a high constitutive basal activity
CCC(C)(c1ccc(O)cc1)c1ccc(O)cc1 [Bisphenol B, 2,2-bis(4-hydroxyphenyl)butane]	26.3 ± 2.65	–	about 9.5	IC50 (GST-ER-α –LBD): 246 ± 29.7 nM
